# Source: patent US20230210906A1, “Composite 3D Brain Organoids with Optic Structures, Uses Thereof and Culture Medium for Obtaining Them” (priority 2022, published 2023)
# Like-named read-outs stand apart in the source and are kept apart here.
# Key:
# [1] = system: sodium channel of organoid neurons (cell lines IMR-90 and GM25256); assay type: cell-based, human
# [2] = system: optic vesicle brain organoids (cell line GM25256)
# Procedure: Optic vesicle organoids of day 40 to 50 were transferred to wells of a 12-wellplate each with 2 ml of optic organoid medium and kept in absolute darkness at 37° C. and 5% CO2 for 24 hours before electroretinogram (ERG) experiments. For ERG, each organoid was placed under red light in an electrode chamber. The electrode chamber was then placed into the dark chamber of the ERG apparatus and connected to the superfusion system containing optic organoid medium. For dose dependent light sensitivity, organoids were exposed to 500 milliseconds long flashes of 2000, 20.000 and 200.000 mlux. Each light intensity was repeated three times in a time interval of 3 min. before the next higher light intensity was applied and responses were recorded. Speed of superfusion was 0.5 ml/min.
# For a third experiment, organoids were superfused in optic organoid medium with higher speed of 2 ml/min. […] For isolating the A-wave by blocking signal transduction from photoreceptors to next the retinal cell layers, 10 mM aspartate was added to the medium after the equilibration time and electric response was continuously recorded. Finally, aspartate was washed out by adding optic organoid medium without aspartate into the system while recording of electric signals as response to flashes.
# [3] = system: rod-bipolar synaptic disjunction; conditions: cited from earlier work
# [4] = system: A2E formation and lipofuscin accumulation; conditions: mouse model of recessive Stargardt's macular degeneration; cited from earlier work
# [5] = system: cells of the cell line IMR90; assay: Optic vesicle formation in iPSC-derived 3D brain organoids exposed to retinol acetate; assay type: cell-based, human; conditions: for Percentage of organoids with optic vesicles (%): cell line IMR90
# Procedure: It is important to start differentiation with a well-maintained human iPS cell culture. Cells were splitted once after thawing, mycoplasma tested and checked for appropriate stem cell morphology. Before inducing neural differentiation, iPS cells were dissociated to single cells. Therefore, iPS cells were once carefully washed with pre-warmed DMEM/F12 (Gibco) and then treated for 5 min. at 37° C. with Accutase (Sigma-Aldrich). After cell collection, centrifuging and counting, cells were diluted in neural induction medium (NIM, Stem cell technologies) plus Rockinhibitor (10 μM, Y-27632 2HCl, Selleck Chem) at a concentration of 1×10^5 cells per ml. 100 μl of this cell suspension was given into each well of a 96-well v-bottom low adherent plate and incubated at 37° C. and 5% CO2. Half of the medium was changed every day for 5 days until neurospheres were formed.
# At day 5 of neural induction, the neurospheres were collected carefully with a cut […] pipette tip and transferred to a 100 mm petri dish containing “neurosphere medium” (Table 9). Additionally, 0.1% Matrigel was added to the medium and neurospheres were incubated for 5 days at 37° C. and 5% CO2. At day 3, 2 ml of “optic vesicle 3D brain organoid medium” (Table 10) containing retinol acetate was added. At day 5, neurospheres were transferred to spinner flasks containing 100 ml “optic vesicle 3D brain organoid medium” ([…]) to let the neurospheres developing to optic vesicle containing brain organoids. […] Optic vesicle organoids were collected for experiments at day 20, 30 and 50. For each cell line, we performed at least 3-4 rounds (batches) of optic vesicle 3D brain organoid generation. Each batch comprises of starting from thawing iPSCs until generating optic vesicle organoids. Morphological and functional optic vesicles brain organoids were easily identified by visibly pigmented areas and used for further analyses.
molecule,measurement,setting,value
"NC1=N[C@H](O)[C@H]2[C@H]3O[C@]4(O)O[C@@H]([C@@H](O)[C@@]2(N1)[C@@H]4O)[C@]3(O)CO [TTX, Tetrodotoxin]",Effect on Na+ current (inward current) of neurons,[1],blocked Na+ current
same,Sensitivity of outward (outwardly rectifying K+) current,[1],TTX insensitive
N[C@@H](CC(=O)O)C(=O)O [aspartate],"ERG amplitude upon light flashes, single organoid recording",[2],< −400 pV
same,ERG hyperpolarization after washout of aspartate,[2],−147 pV
same,ERG hyperpolarization on average during aspartate treatment,[2],−278 pV
same,Effect on ERG b-wave,[2],blocked the b-wave
O=S(=O)(c1cccc2cnccc12)N1CCCNCC1 [fasudil],Effect on rod-bipolar synaptic disjunction,[3]; intravitreal injection,effective
same,Effect on rod-bipolar synaptic disjunction,[3]; subretinal injection,reduces rod-bipolar synaptic disjunction
CC1=C(/C=C/C(C)=C/C=C/C(C)=C\C(=O)O)C(C)(C)CCC1 [isotretinoin],Effect on A2E formation and lipofuscin accumulation,[4],inhibits A2E formation and lipofuscin accumulation
retinol acetate [Retinoic acetate],Percentage of organoids with optic vesicles (%),[5]; 40 nM,21%
same,Yield of optic vesicle brain organoids,"[5]; 60 nM, among concentrations ranging from 0 to 120 nM",best results (highest yield of optic vesicle brain organoids)
same,Formation of pigmented structures (possibly primordial eye fields),"[5]; 60 nM, at around day 30",reproducibly induced the formation of pigmented structures
same,Percentage of organoids with optic vesicles (%),[5]; 60 nM,80%
same,Percentage of organoids with optic vesicles (%),[5]; 100 nM,15%
same,Percentage of organoids with optic vesicles (%),[5]; 150 nM,10%
same,Percentage of organoids with optic vesicles (%),[5]; 200 nM,10%
same,Percentage of organoids with optic vesicles (%),[5]; 250 nM,8%
